Assay results from patent US20160040240A1, “CACNA1C ALLELE AND TREATMENT OF MOOD DISORDERS” (THE UNIVERSITY OF CHICAGO, priority 2014, published 2016).

Tests used:
[1] = system: L-type channel of the Cav1.2 protein; settings: cited from earlier work
[2] = system: neuronal induced pluripotent stem cells (iPSCs) derived from TS patients; settings: TS patient iPSC-derived neuronal cells; cited from earlier work
patient with TS Type 2 = experiment: Case report: treatment of a patient with Timothy Syndrome type 2 and bipolar disorder; format: in vivo, human
Description: The patient is a person with TS Type 2 (see below) diagnosed in childhood. The patient was referred for research evaluation after diagnosis of BD by one of us (FO). This was confirmed by interview with the patient and their parent, using the Diagnostic Interview for Genetic Studies (DIGS), version 3.0.
Ten months after starting the medication, they were referred to a neurologist, who found depression and prescribed citalopram.
They were restarted on their antidepressant and has been stable for the three years of observation since then. We note that this is not a typical course of BD, and that further observation will be needed to fully define their course.

[3] = clinical use; cited from earlier work
[4] = verapamil: particularly in males; cited from earlier work
[5] = verapamil at 250 mg/d, TS patient

CC[C@H](CO)Nc1nc(NCc2ccccc2)c2ncn(C(C)C)c2n1 [roscovitine]
inactivation of the L-type channel [1]: enhanced (normalized) | reduction in the proportion of TH-positive neurons [2]: 68% | reversal of excess expression of TH [2]: succeeds in reversing

COc1ccc(CCN(C)CCCC(C#N)(c2ccc(OC)c(OC)c2)C(C)C)cc1OC (stereo not drawn) [verapamil]
QT interval (patient with TS Type 2; [5]): no change | episodes of atrial fibrillation (patient with TS Type 2; [5]): continued to have some episodes | number of ventricular fibrillation episodes (patient with TS Type 2; [5]): marked decrease

[Li] [Lithium]
tolerability (patient with TS Type 2; given for mood stabilization, complaints of increased lethargy and irritability): not well tolerated

COC(=O)C1=C(C)NC(C)=C(C(=O)OCCN(C)Cc2ccccc2)C1c1cccc([N+](=O)[O-])c1 (stereo not drawn) [Nicardipine]
common side effects [3]: headache, peripheral edema, dizziness, flushing, asthenia, angina, hypotension, nausea/vomiting, tachycardia, and palpitations | penetration into the brain / crossing of the blood-brain barrier [4]: satisfactorily crosses
